According to patent US20250367631A1, “TWO PHASE FLOWS FOR REACTIONS AND SEPARATIONS” (University of Delaware, priority 2024, published 2025):
Where two headings read alike, the source gives them in different places.

How the values were obtained:
[1] = Organic solvent properties used in the CFD model (Table 2); assay type: physicochemical; conditions: for Density / Dynamic viscosity: organic solvent; for Interfacial Tension: organic solvent / water
Excerpt: Principal component analysis (PCA) was used to identify the number of features required to capture the system's behavior. Considering material properties and dimensionless groups of both phases gave a total of 26 features (See Table 1 and definitions in the Supplemental Information (SI) herein below). The dimensionless groups were based on previous work. See, e.g., Chen, supra; Zhao, Y.; Chen, G.; Yuan, Q. “Liquid-liquid two-phase flow patterns in a rectangular microchannel.” AIChE Journal 2006, 52 (12), 4052-4060; Yagodnitsyna, A. A.; Kovalev, A. V.; Bilsky, A. V. “Flow patterns of immiscible liquid-liquid flow in a rectangular microchannel with T-junction.” Chemical Engineering Journal 2016, 303, 547-554; Zhao, C. X.; Middelberg, A. P. J. “Two-phase microfluidic flows.” Chemical Engineering Science 2011, 66 (7), 1394-1411. Apart from PCA, feature importance can rank features for classifying flowpatterns. A clustered covariance matrix may be employed to group dependent variables. We implemented these algorithms using the sklearn library in Python.
FIG. 11a, b, d and FIG. 11c maps the conditions for our experimental and computational flow patterns, respectively. As the diameter increases, different flow conditions (total volumetric flow rate, org/aq (v/v) ratio, various organic solvents) lead to varying patterns. […] For larger diameters, the parallel flow becomes prominent (FIG. 11c). […] At lower experimental flow rates (0.1-10 ml/min), no irregular flow is observed.

[2] = per Chen et al., cited from earlier work; for Diffusivity: HMF in the organic solvent; for Partition Coefficient: HMF, organic solvent/water
[3] = experimentally shown, Wang et al., cited from earlier work

Structure (SMILES)	Density [1] [kg m^−3]	Dynamic viscosity [1]	Interfacial Tension [1] [N m^−1]	Diffusivity [2]	Partition Coefficient [2]	KHMF (HMF partition coefficient) ([3]; 25° C.)	KHMF (HMF partition coefficient) ([3]; 150° C.)
CC(=O)CC(C)C [MIBK, methyl isobutyl ketone]	684	5.85 × 10^−4 Pa · s	0.0157	2.43 × 10^−9 m^2/s	1.1 ± 0.03	–	–
Cc1cccc(O)c1 [m-cresol]	–	–	–	–	–	20.6	4.2
CCOC(C)=O [EtAc, ethyl acetate]	900	4.41 × 10^−4 Pa · s	0.0074	2.87 × 10^−9 m^2/s	1.4 ± 0.05	–	–
CCCC(C)O (centres unmarked) [2-pentanol]	812	3.47 × 10^−3 Pa · s	0.0034	3.81 × 10^−10 m^2/s	1.3 ± 0.07	–	–
